The subject of test [1] is carrageenan induced paw edema. Description: Inflammation imaging, carrageenan induced paw edema. The test is classed as in vivo, BALB/c female mice. The conditions noted are these: 1% carrageenan subcutaneously, fluorescence molecular tomography; FIG. 9. The protocol:
Briefly, BALB/c female mice 6-8 weeks old (Charles River Laboratory, Wilmington, Mass.) were injected subcutaneously with a 1% solution of carrageenan in PBS. After 1 minute post-injection, mice were injected the imaging agent Q91. Imaging was conducted at various time points using a Fluorescence Molecular Tomography system (VisEn Medical, Woburn Mass.).
On the technique in general: The carrageenan paw model is a standard test of acute inflammation.

The subject of test [2] is trypsin. Description: Enzyme activation of R22, trypsin. The format is biochemical. The conditions noted are these: 0.5 μM R22, 0.05 μM enzyme, room temperature, 24 hours; FIG. 13. The method, then:
(§1) Activation by recombinant enzymes was carried out in 250 μL volumes set up in 96 well plates. MMPs were activated prior to the reaction according to manufacturers' protocols. Reactions contained 0.5 μM of R22 and 0.05 μM of activated enzyme in the appropriate activation buffer for each enzyme and incubated at room temperature for 24 hours. The plates were read at 24 hours with excitation/emission wavelength 740/770 nm. Fluorescence readings were performed using a Gemini (Molecular Devices) Fluorescence Plate Reader. Wells in which no enzyme was added were used as controls. Fold activation was obtained by dividing the enzyme-activated read-out (in relative fluorescence units) by its corresponding control well.

Test [3] addresses T1, recombinant human MMP-13 (Homo sapiens, UniProt P45452).
T1 construct: purchased
Description: Enzyme activation of R22, MMP-13. The test is classed as biochemical. The conditions noted are these: 0.5 μM R22, 0.05 μM enzyme, room temperature, 24 hours; FIG. 13. The method, then:
as §1

Test [4] relates to atherosclerotic plaque in ApoE -/- knockout mice. The experiment in a line: Imaging of macrophage activity in atherosclerotic plaque. The format is in vivo. The conditions noted are these: intravenous, 6 hours post-injection. The method, then:
Age-matched C57BL6 wild type female mice (Charles river Laboratories) were fed a normal diet and ApoE −/− knockout female mice (Jackson Laboratories) were fed a high cholesterol diet for 10-20 weeks. The mice were injected intravenously with compounds of formula R51 ([mPEG-20kDa-Suc]-Lys(F6)-Gly-Phe-Leu-Gly-Lys(F6)-[NH2]) (SEQ ID NO:435) and R55 ([mPEG-20kDa-Suc]-Lys(F6)-Arg-Arg-Lys(F6)-[NH2]) (SEQ ID NO:438). The mice were then imaged at 6 and 24 hours by fluorescence molecular tomography or fluorescence reflectance using an FMT2500 (VisEn Medical, Bedford, Mass.).

In test [5] the test system is Cathepsin B, Cathepsin K, Cathepsin L, or Cathepsin S. The experiment in a line: Enzyme activation profiles of R51 to R59, cathepsins. The format is biochemical. The conditions noted are these: compound 0.5 uM, enzyme 0.05 uM, monitored for 24 hours; FIG. 15. The protocol:
Compounds at a concentration of 0.5 uM were incubated with Cathepsin B, Cathepsin K, Cathepsin L, or Cathepsin S at a concentration of 0.05 uM. The reaction buffers used were as follows: Cathepsin K—50 mM MES, pH 5.0, 2.5 mM EDTA, 2.5 mM DTT; Cathepsin B—25 mM MES, pH 5.0, 1 mM DTT; Cathepsin S—50 mM NaOAc, pH 4.5, 5 mM DTT, 0.25M NaCl; Cathepsin L—50 mM MES, pH 6, 5 mM DTT. The activity was monitored for 24 hours with a Gemini (Molecular Devices) fluorescence plate reader at excitation 663 nm and emission 690 nm with a cut off of […].

The star is where a group is joined. YPEG 2×20 kDa = Y-shaped PEG of 2×20 kDa; Pent4ynoyl = C#CCCC(=O)*; F5 = not defined here; F6 = not defined here

For the substance “Pentynoyl-Lys(F5)-Pro-Leu-Gly-Val-Arg-Lys(F5)-PEG20kDa (Pent4ynoyl-K(F5)PLGVRK(F5)-PEG20kDa; reading uncertain; also: printed as Pentynoyl-Lys(F5)-Pro-Leu-Gly-Val-Arg-Lys(F5)-PEG20kDa) [Agent Q91]”, the “fluorescence in carrageenan injected paw versus control paw” value in test [1] was “significantly more fluorescence is observed in the mouse paw injected with carrageenan compared to the control paw”.

As to “[F6]-Gly-Pro-Leu-Gly-Val-Arg-Lys(F6)-[YPEG 2×20 kDa] (F6-GPLGVRK(F6)-{YPEG 2×20 kDa}; reading uncertain; also: printed as [F6]-Gly-Pro-Leu-Gly-Val-Arg-Lys(F6)-[YPEG 2×20 kDa]) [Agent R22]”, the “activation by trypsin (fold activation)” value in test [2] was “activated primarily”. For the same substance, the “activation by recombinant human MMP-13 (fold activation)” value in test [3] is “activated primarily”.

On to “[mPEG-20kDa-Suc]-Lys(F6)-Gly-Phe-Leu-Gly-Lys(F6)-[NH2] ({mPEG‑20kDa‑Suc}-K(F6)GFLGK(F6)-NH2; reading uncertain; also: printed as [mPEG-20kDa-Suc]-Lys(F6)-Gly-Phe-Leu-Gly-Lys(F6)-[NH2]) [Agent R51]”, for which the “fluorescent signal in ApoE knockout mice versus wild type controls” value in test [4] (fluorescence molecular tomography, FIG. 17) was “greater fluorescent signal in the ApoE knockout mice over controls”; in test [4] (tomography and reflectance, FIG. 16), “greater fluorescent signal in the ApoE knockout mice over controls”. The “activation by various Cathepsin proteases compared with the other imaging agents” value in test [5] is recorded as “greater than that of the other imaging agents”.

For the origin of these results see patent publication US9999687B2, “Fluorescent imaging agents” (VisEn Medical, Inc., priority 2008, dated 2018).
